Measurements as given in patent US7553864B2, “Compounds for the treatment of inflammatory disorders and microbial diseases” (Schering Corporation, priority 2005, dated 2009).

Tested on: LpxC enzyme
Assay: LpxC enzyme assay (RapidFire high-throughput mass spectrometry)
Type: biochemical
Conditions: concentration 0.10 (unit not given)
Method in brief: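 0.2 nM enzyme with 1.0 μM UDP-3-O-(R-3-hydroxymyristoyl)-N-acetylglucosamine in 25 mM HEPES pH 7.3, 150 mM NaCl, 2.0 mM DTT, 0.01% BSA, 2% DMSO; 60 min at room temperature, quenched with HCl. Substrate and product quantified by RapidFire mass spectrometry; percent conversion gives percent inhibition versus DMSO control.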

Row | SMILES | LpxC enzyme assay rating (% inhibition at indicated concentrations)
1 | CN(C)C(=O)[C@H](O)[C@@H](O)C(=O)Nc1ccccc1C#Cc1ccccc1 [Compound 80] | C (less than 10% inhibition)
2 | CN(C)C(=O)[C@H](O)[C@@H](O)C(=O)Nc1cccc(C#Cc2ccccc2)c1 [Compound 81] | C (less than 10% inhibition)
3 | CN(C)C(=O)[C@H](O)[C@@H](O)C(=O)Nc1ccc(-c2ccc3ccccc3c2)cc1 [Compound 82] | C (less than 10% inhibition)
4 | CN(C)C(=O)[C@H](O)[C@@H](O)C(=O)N(C)c1ccccc1C#Cc1ccccc1 [Compound 103] | C (less than 10% inhibition)
5 | CN(C)C(=O)[C@H](O)[C@@H](O)C(=O)N(C)c1ccc(-c2ccc3ccccc3c2)cc1 [Compound 104] | C (less than 10% inhibition)

Same assay, conditions: concentration 0.20 (unit not given)

Row | SMILES | LpxC enzyme assay rating (% inhibition at indicated concentrations)
6 | CN(C)C(=O)[C@H](O)[C@@H](O)C(=O)Nc1ccccc1C#Cc1ccccc1 [Compound 80] | C (less than 10% inhibition)
7 | CN(C)C(=O)[C@H](O)[C@@H](O)C(=O)Nc1cccc(C#Cc2ccccc2)c1 [Compound 81] | C (less than 10% inhibition)
8 | CN(C)C(=O)[C@H](O)[C@@H](O)C(=O)Nc1ccc(-c2ccc3ccccc3c2)cc1 [Compound 82] | B (10-30% inhibition)
9 | CN(C)C(=O)[C@H](O)[C@@H](O)C(=O)N(C)c1ccccc1C#Cc1ccccc1 [Compound 103] | C (less than 10% inhibition)
10 | CN(C)C(=O)[C@H](O)[C@@H](O)C(=O)N(C)c1ccc(-c2ccc3ccccc3c2)cc1 [Compound 104] | C (less than 10% inhibition)

Same assay, conditions: concentration 0.39 (unit not given)

Row | SMILES | LpxC enzyme assay rating (% inhibition at indicated concentrations)
11 | CN(C)C(=O)[C@H](O)[C@@H](O)C(=O)Nc1ccccc1C#Cc1ccccc1 [Compound 80] | C (less than 10% inhibition)
12 | CN(C)C(=O)[C@H](O)[C@@H](O)C(=O)Nc1cccc(C#Cc2ccccc2)c1 [Compound 81] | C (less than 10% inhibition)
13 | CN(C)C(=O)[C@H](O)[C@@H](O)C(=O)Nc1ccc(-c2ccc3ccccc3c2)cc1 [Compound 82] | C (less than 10% inhibition)
14 | CN(C)C(=O)[C@H](O)[C@@H](O)C(=O)N(C)c1ccccc1C#Cc1ccccc1 [Compound 103] | B (10-30% inhibition)
15 | CN(C)C(=O)[C@H](O)[C@@H](O)C(=O)N(C)c1ccc(-c2ccc3ccccc3c2)cc1 [Compound 104] | C (less than 10% inhibition)

Same assay, conditions: concentration 0.78 (unit not given)

Row | SMILES | LpxC enzyme assay rating (% inhibition at indicated concentrations)
16 | CN(C)C(=O)[C@H](O)[C@@H](O)C(=O)Nc1ccccc1C#Cc1ccccc1 [Compound 80] | C (less than 10% inhibition)
17 | CN(C)C(=O)[C@H](O)[C@@H](O)C(=O)Nc1cccc(C#Cc2ccccc2)c1 [Compound 81] | C (less than 10% inhibition)
18 | CN(C)C(=O)[C@H](O)[C@@H](O)C(=O)Nc1ccc(-c2ccc3ccccc3c2)cc1 [Compound 82] | C (less than 10% inhibition)
19 | CN(C)C(=O)[C@H](O)[C@@H](O)C(=O)N(C)c1ccccc1C#Cc1ccccc1 [Compound 103] | B (10-30% inhibition)
20 | CN(C)C(=O)[C@H](O)[C@@H](O)C(=O)N(C)c1ccc(-c2ccc3ccccc3c2)cc1 [Compound 104] | C (less than 10% inhibition)

Same assay, conditions: concentration 1.56 (unit not given)

Row | SMILES | LpxC enzyme assay rating (% inhibition at indicated concentrations)
21 | CN(C)C(=O)[C@H](O)[C@@H](O)C(=O)Nc1ccccc1C#Cc1ccccc1 [Compound 80] | C (less than 10% inhibition)
22 | CN(C)C(=O)[C@H](O)[C@@H](O)C(=O)Nc1cccc(C#Cc2ccccc2)c1 [Compound 81] | C (less than 10% inhibition)
23 | CN(C)C(=O)[C@H](O)[C@@H](O)C(=O)Nc1ccc(-c2ccc3ccccc3c2)cc1 [Compound 82] | C (less than 10% inhibition)
24 | CN(C)C(=O)[C@H](O)[C@@H](O)C(=O)N(C)c1ccccc1C#Cc1ccccc1 [Compound 103] | B (10-30% inhibition)
25 | CN(C)C(=O)[C@H](O)[C@@H](O)C(=O)N(C)c1ccc(-c2ccc3ccccc3c2)cc1 [Compound 104] | C (less than 10% inhibition)

Same assay, conditions: concentration 3.13 (unit not given)

Row | SMILES | LpxC enzyme assay rating (% inhibition at indicated concentrations)
26 | CN(C)C(=O)[C@H](O)[C@@H](O)C(=O)Nc1ccccc1C#Cc1ccccc1 [Compound 80] | C (less than 10% inhibition)
27 | CN(C)C(=O)[C@H](O)[C@@H](O)C(=O)Nc1cccc(C#Cc2ccccc2)c1 [Compound 81] | C (less than 10% inhibition)
28 | CN(C)C(=O)[C@H](O)[C@@H](O)C(=O)Nc1ccc(-c2ccc3ccccc3c2)cc1 [Compound 82] | B (10-30% inhibition)
29 | CN(C)C(=O)[C@H](O)[C@@H](O)C(=O)N(C)c1ccccc1C#Cc1ccccc1 [Compound 103] | B (10-30% inhibition)
30 | CN(C)C(=O)[C@H](O)[C@@H](O)C(=O)N(C)c1ccc(-c2ccc3ccccc3c2)cc1 [Compound 104] | C (less than 10% inhibition)

Same assay, conditions: concentration 6.25 (unit not given)

Row | SMILES | LpxC enzyme assay rating (% inhibition at indicated concentrations)
31 | CN(C)C(=O)[C@H](O)[C@@H](O)C(=O)Nc1ccccc1C#Cc1ccccc1 [Compound 80] | C (less than 10% inhibition)
32 | CN(C)C(=O)[C@H](O)[C@@H](O)C(=O)Nc1cccc(C#Cc2ccccc2)c1 [Compound 81] | C (less than 10% inhibition)
33 | CN(C)C(=O)[C@H](O)[C@@H](O)C(=O)Nc1ccc(-c2ccc3ccccc3c2)cc1 [Compound 82] | B (10-30% inhibition)
34 | CN(C)C(=O)[C@H](O)[C@@H](O)C(=O)N(C)c1ccccc1C#Cc1ccccc1 [Compound 103] | C (less than 10% inhibition)
35 | CN(C)C(=O)[C@H](O)[C@@H](O)C(=O)N(C)c1ccc(-c2ccc3ccccc3c2)cc1 [Compound 104] | C (less than 10% inhibition)

Same assay, conditions: concentration 12.50 (unit not given)

Row | SMILES | LpxC enzyme assay rating (% inhibition at indicated concentrations)
36 | CN(C)C(=O)[C@H](O)[C@@H](O)C(=O)Nc1ccccc1C#Cc1ccccc1 [Compound 80] | B (10-30% inhibition)
37 | CN(C)C(=O)[C@H](O)[C@@H](O)C(=O)Nc1cccc(C#Cc2ccccc2)c1 [Compound 81] | C (less than 10% inhibition)
38 | CN(C)C(=O)[C@H](O)[C@@H](O)C(=O)Nc1ccc(-c2ccc3ccccc3c2)cc1 [Compound 82] | A (greater than 30% inhibition)
39 | CN(C)C(=O)[C@H](O)[C@@H](O)C(=O)N(C)c1ccccc1C#Cc1ccccc1 [Compound 103] | B (10-30% inhibition)
40 | CN(C)C(=O)[C@H](O)[C@@H](O)C(=O)N(C)c1ccc(-c2ccc3ccccc3c2)cc1 [Compound 104] | C (less than 10% inhibition)

Same assay, conditions: concentration 25 (unit not given)

Row | SMILES | LpxC enzyme assay rating (% inhibition at indicated concentrations)
41 | CN(C)C(=O)[C@H](O)[C@@H](O)C(=O)Nc1ccccc1C#Cc1ccccc1 [Compound 80] | C (less than 10% inhibition)
42 | CN(C)C(=O)[C@H](O)[C@@H](O)C(=O)Nc1cccc(C#Cc2ccccc2)c1 [Compound 81] | C (less than 10% inhibition)
43 | CN(C)C(=O)[C@H](O)[C@@H](O)C(=O)Nc1ccc(-c2ccc3ccccc3c2)cc1 [Compound 82] | A (greater than 30% inhibition)
44 | CN(C)C(=O)[C@H](O)[C@@H](O)C(=O)N(C)c1ccccc1C#Cc1ccccc1 [Compound 103] | C (less than 10% inhibition)
45 | CN(C)C(=O)[C@H](O)[C@@H](O)C(=O)N(C)c1ccc(-c2ccc3ccccc3c2)cc1 [Compound 104] | B (10-30% inhibition)
